Bounds are passed on as bounds.

Sequence of EZH2 (Q15910 whole entry): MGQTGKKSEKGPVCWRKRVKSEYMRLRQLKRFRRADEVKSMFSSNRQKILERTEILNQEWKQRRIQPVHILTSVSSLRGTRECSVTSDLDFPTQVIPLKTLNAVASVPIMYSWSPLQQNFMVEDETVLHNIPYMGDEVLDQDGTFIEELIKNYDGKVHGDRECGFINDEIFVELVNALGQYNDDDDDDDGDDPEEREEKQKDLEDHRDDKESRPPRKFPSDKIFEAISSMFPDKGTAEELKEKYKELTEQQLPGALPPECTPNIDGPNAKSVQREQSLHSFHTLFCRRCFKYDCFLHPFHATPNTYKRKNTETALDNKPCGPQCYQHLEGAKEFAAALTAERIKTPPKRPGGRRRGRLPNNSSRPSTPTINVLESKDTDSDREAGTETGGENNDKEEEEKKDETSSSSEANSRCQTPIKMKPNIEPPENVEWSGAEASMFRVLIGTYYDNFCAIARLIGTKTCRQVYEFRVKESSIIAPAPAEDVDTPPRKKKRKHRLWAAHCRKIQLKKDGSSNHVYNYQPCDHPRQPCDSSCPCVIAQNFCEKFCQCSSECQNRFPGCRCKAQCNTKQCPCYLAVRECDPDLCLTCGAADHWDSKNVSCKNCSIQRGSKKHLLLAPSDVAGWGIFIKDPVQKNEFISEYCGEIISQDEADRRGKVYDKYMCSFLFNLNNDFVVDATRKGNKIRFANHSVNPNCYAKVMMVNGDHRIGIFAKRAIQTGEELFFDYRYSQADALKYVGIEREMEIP
Sequence of EZH2 (O75530 whole entry partner): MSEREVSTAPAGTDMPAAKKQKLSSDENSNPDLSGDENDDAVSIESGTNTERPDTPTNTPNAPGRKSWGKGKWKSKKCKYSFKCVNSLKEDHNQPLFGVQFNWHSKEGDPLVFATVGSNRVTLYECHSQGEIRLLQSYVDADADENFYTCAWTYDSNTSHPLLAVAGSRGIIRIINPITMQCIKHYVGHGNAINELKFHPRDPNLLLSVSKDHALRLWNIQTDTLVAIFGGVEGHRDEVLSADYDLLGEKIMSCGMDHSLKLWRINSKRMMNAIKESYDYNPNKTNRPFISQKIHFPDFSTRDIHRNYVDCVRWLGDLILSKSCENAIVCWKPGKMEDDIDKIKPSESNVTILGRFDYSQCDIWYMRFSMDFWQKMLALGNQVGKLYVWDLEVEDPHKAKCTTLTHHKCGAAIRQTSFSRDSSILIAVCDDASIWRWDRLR
Sequence of EZH2 (Q15022 whole entry partner): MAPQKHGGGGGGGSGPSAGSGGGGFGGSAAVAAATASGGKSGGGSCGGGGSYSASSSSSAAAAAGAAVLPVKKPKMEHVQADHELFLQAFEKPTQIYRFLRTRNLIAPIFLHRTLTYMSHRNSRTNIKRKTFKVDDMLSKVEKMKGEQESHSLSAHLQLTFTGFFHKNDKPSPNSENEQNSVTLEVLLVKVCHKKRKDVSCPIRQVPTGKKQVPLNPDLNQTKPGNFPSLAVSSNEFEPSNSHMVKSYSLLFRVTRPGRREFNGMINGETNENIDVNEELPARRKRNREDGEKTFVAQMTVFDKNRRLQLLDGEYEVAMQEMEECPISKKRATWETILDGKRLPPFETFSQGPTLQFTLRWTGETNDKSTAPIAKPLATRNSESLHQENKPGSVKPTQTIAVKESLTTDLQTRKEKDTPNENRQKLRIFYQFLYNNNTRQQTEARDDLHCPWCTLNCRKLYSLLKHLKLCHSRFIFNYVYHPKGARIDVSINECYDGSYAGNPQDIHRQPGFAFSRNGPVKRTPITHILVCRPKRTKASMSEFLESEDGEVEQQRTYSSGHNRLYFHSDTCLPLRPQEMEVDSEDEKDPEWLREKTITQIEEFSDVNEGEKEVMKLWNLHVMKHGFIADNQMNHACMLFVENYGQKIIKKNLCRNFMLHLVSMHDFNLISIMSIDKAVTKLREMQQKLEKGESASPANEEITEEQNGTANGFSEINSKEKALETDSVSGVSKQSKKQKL

This test has as its target EZH2 (Homo sapiens, UniProt Q15910). Briefly: EZH2 assay: rPRC2 with biotinylated oligonucleosome substrates and 3H SAM, FlashPlate scintillation counting, IC50. It is filed as biochemical. To be noted: rPRC2, biotinylated oligonucleosome substrates, 3H SAM; read-out: EZH2 IC50. The procedure, abridged:
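rPRC2 (2 nM EZH2) pre-incubated 20 min with compound (80 to 0.16 uM, ten 2-fold steps), then 60 min reaction with 0.2 uM 3H SAM, 0.2 uM biotinylated oligonucleosomes, 3.6 uM H3K27me3 peptide in Tris pH 8.5. SAH/EDTA quench; 4-parameter IC50 fit.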
The term IC50 denotes the concentration that inhibits the measured activity by half. For `N#Cc1ccccc1Oc1ccc(C(=O)NC2CCN(CCN)CC2)cc1Cl` [Compound I-460], the half-maximal inhibitory concentration (IC50) is over 80 µM. As for `CC1CC(NC(=O)c2ccc(Oc3ccccc3C#N)c(Cl)c2)CC(C)(C)N1` (stereo not shown) [Compound I-461], the figure is 5 to 20 µM; as for `CC1(C)CC(NC(=O)c2ccc(Oc3cccc(C(C)(C)C#N)c3)c(Cl)c2)CC(C)(C)N1` [Compound I-462], 20 to 80 µM. On to `Cc1noc(C)c1-c1cccc(Oc2ccc(C(=O)NC3CC(C)(C)NC(C)(C)C3)cc2Cl)c1C#N` [Compound I-463], for which the 50% inhibitory concentration (IC50) is under 5 µM.

In the case of `CN(C)C(=O)Cc1cccc(Oc2ccc(C(=O)NC3CC(C)(C)NC(C)(C)C3)cc2Cl)c1C#N` [Compound I-464], the IC50 was over 80 µM.

In the case of `CN1CCC(NC(=O)c2ccc(Oc3cccc(-c4ccnnc4)c3C#N)c(Cl)c2)CC1` [Compound I-465], the 50% inhibitory concentration (IC50) was over 80 µM. Then `CC1(C)CC(NC(=O)N2CCC(Oc3ccccc3)C2)CC(C)(C)N1` (stereo not shown) [Compound I-466], with over 80 µM; and `CC1CC(NC(=O)c2ccc(Oc3ccccc3C#N)c(Cl)c2)CC(C)N1` (stereo not shown) [Compound I-467], with 20 to 80 µM. As to `CC1(C)CC(NC(=O)c2ccc(Oc3cccc(CC(N)=O)c3C#N)c(Cl)c2)CC(C)(C)N1` [Compound I-469], the IC50 was under 5 µM. As for `CC1(C)CC(NC(=O)N2CCC(c3ccccc3)C2)CC(C)(C)N1` (stereo not shown) [Compound I-470], the figure is over 80 µM. As for `COc1cc(C(=O)NC2CC(C)(C)NC(C)(C)C2)cc2c1OCCO2` [Compound I-471], the figure is over 80 µM; as for `CC1CC(NC(=O)c2ccc(Oc3cccc(-c4ccnnc4)c3C#N)c(Cl)c2)CC(C)N1` (stereo not shown) [Compound I-472], under 5 µM; as for `N#Cc1c(Oc2ccc(C(=O)NC3CCN(CCO)CC3)cc2Cl)cccc1-c1ccnnc1` [Compound I-474], 20 to 80 µM. Turning to `N#CCN1CCC(NC(=O)c2ccc(Oc3cccc(-c4ccnnc4)c3C#N)c(Cl)c2)CC1` [Compound I-475], the half-inhibitory concentration (IC50) was over 80 µM. Then `Cn1cc(-c2cccc(Oc3ccc(C(=O)NC4CC(C)(C)NC(C)(C)C4)cc3Cl)c2C#N)ccc1=O` [Compound I-476], with under 5 µM. Then `CC1(C)CC(NC(=O)c2ccc(Oc3cccc(-c4ccnnc4)c3C#N)c(Cl)c2)CC(c2ccccc2)N1` (stereo not shown) [Compound I-477], with under 5 µM; and `CC1CC(NC(=O)c2ccc(Oc3cccc(-c4ccnnc4)c3C#N)c(Cl)c2)CC(C)(C)N1` (stereo not shown) [Compound I-478], with under 5 µM.

In the case of `CC(C#N)c1cccc(Oc2ccc(C(=O)NC3CC(C)(C)NC(C)(C)C3)cc2Cl)c1` (stereo not shown) [Compound I-479], the half-maximal inhibitory concentration (IC50) was in the range of 20 to 80 µM. Then `CC1(C)CC(CC(=O)O)(NC(=O)c2ccc(Oc3cccc(-c4ccnnc4)c3C#N)c(Cl)c2)CC(C)(C)N1` [Compound I-482], with 20 to 80 µM. As for `CC1(C)CC(NC(C(=O)O)c2ccc(Oc3ccccc3C#N)c(Cl)c2)CC(C)(C)N1` (stereo not shown) [Compound I-483], the figure is over 80 µM; as for `CC(c1ccccc1C#N)N1CCN(C(=O)NC2CC(C)(C)NC(C)(C)C2)CC1=O` (stereo not shown) [Compound I-484], over 80 µM. For the molecule `N#CCCN1CCC(NC(=O)c2ccc(Oc3cccc(-c4ccnnc4)c3C#N)c(Cl)c2)CC1` [Compound I-485], the IC50 is 20 to 80 µM. As for `N#Cc1c(Oc2ccc(C(=O)NC3CCN(CCN)CC3)cc2Cl)cccc1-c1ccnnc1` [Compound I-486], the IC50 is 5 to 20 µM. Then `CC1(C)CC(NC(=O)c2ccc(Oc3cccc(OCC(N)=O)c3C#N)c(Cl)c2)CC(C)(C)N1` [Compound I-487], with under 5 µM; and `Cc1nnc2n1-c1ccccc1C(c1ccc(C(=O)NC3CC(C)(C)NC(C)(C)C3)cc1)=NC2` [Compound I-488], with over 80 µM. As for `CC1(C)CC(NC(=O)c2ccc(Oc3ccccc3C#N)c(Cl)c2)CC(C)(C)N1CCCO` [Compound I-489, 3-chloro-4-(2-cyanophenoxy)-N-(1-(3-hydroxypropyl)-2,2,6,6-tetramethylpiperidin-4-yl)benzamide], the figure is under 5 µM; as for `CC1(C)CC(NC(=O)c2ccc(-n3ncc4c(Br)cccc43)c(Cl)c2)CC(C)(C)N1` [Compound I-490], 5 to 20 µM. Then `CC1(C)CC(NC(=O)c2ccc(Oc3ccccc3C#N)c(Cl)c2)CC(=O)N1` (stereo not shown) [Compound I-491], with over 80 µM. In the case of `CC1(C)CC(NC(=O)c2ccc(-n3ccc4c(O)cccc43)c(Cl)c2)CC(C)(C)N1` [Compound I-492], the concentration for half-maximal inhibition (IC50) is under 5 µM. Then `CC1(C)CC(NC(=O)c2ccc(-n3ccc4cc(O)ccc43)c(Cl)c2)CC(C)(C)N1` [Compound I-494], with 20 to 80 µM; and `CC1(C)CC(NC(=O)c2ccc(-n3cccn3)c(Cl)c2)CC(C)(C)N1` [Compound I-496], with over 80 µM; and `CC1(C)CC(NC(=O)c2ccc(N3CCc4cccc(O)c4C3=O)c(Cl)c2)CC(C)(C)N1` [Compound I-498], with 5 to 20 µM. Then `COc1cc(-c2cccc(Oc3ccc(C(=O)NC4CC(C)(C)NC(C)(C)C4)cc3Cl)c2C#N)ccn1` [Compound I-500], with under 5 µM; and `CC1(C)CC(NC(=O)c2ccc(Oc3cccc(CCC(N)=O)c3C#N)c(Cl)c2)CC(C)(C)N1` [Compound I-501], with under 5 µM.

In the case of `CC1(C)CC(NC(=O)c2ccc(Oc3cccc(NCC(N)=O)c3C#N)c(Cl)c2)CC(C)(C)N1` [Compound I-502], the IC50 was under 5 µM. Then `CC1(C)CC(NC(=O)c2ccc(Oc3ccccc3C#N)c(Cl)c2)CCN1` (stereo not shown) [Compound I-503], with 5 to 20 µM; and `CC1(C)CC(NC(=O)c2ccc(Oc3cccc(-c4cccc(C#N)c4)c3C#N)c(Cl)c2)CC(C)(C)N1` [Compound I-505], with under 5 µM. As to `CC1(C)CC(NC(=O)c2ccc(Oc3cccc(-c4ccc(C#N)cc4)c3C#N)c(Cl)c2)CC(C)(C)N1` [Compound I-506], the IC50 is under 5 µM.

On to `CC1(C)CC(C)(NC(=O)c2ccc(Oc3cccc(-c4ccnnc4)c3C#N)c(Cl)c2)CC(C)(C)N1` [Compound I-507], for which the half-inhibitory concentration (IC50) fell in the range of 20 to 80 µM. Then `Cc1cc(C(=O)NC2CC(C)(C)NC(C)(C)C2)ccc1Oc1cccc(-c2ccnnc2)c1C#N` [Compound I-508], with under 5 µM; and `CC1(C)CC(NC(=O)c2ccc(Oc3cccc(-c4ccnnc4)c3C#N)c(Cl)c2)CC(C)(C)S1` [Compound I-517], with 5 to 20 µM. Then `CC1(C)CC(NC(=O)c2ccc(Oc3cccc(-c4ccnnc4)c3C#N)c(Cl)c2)CC(C)(C)[S+]1[O-]` (stereo not shown) [Compound I-518], with 20 to 80 µM. Then `CC1(C)CC(NC(=O)c2ccc(Oc3cccc(-c4ccnnc4)c3C#N)c(Cl)c2)CC(=O)N1` (stereo not shown) [Compound I-519], with 20 to 80 µM. For the molecule `CC1(C)CC(NC(=O)c2ccc(Oc3cncc(-c4ccncc4)c3C#N)c(Cl)c2)CC(C)(C)N1` [Compound I-520], the IC50 is under 5 µM. Then `CC1(C)CC(NC(=O)c2ccc(N3C(=O)COc4ccccc43)c(Cl)c2)CC(C)(C)N1` [Compound I-522], with 20 to 80 µM. For the molecule `CC1(C)CC(NC(=O)c2ccc(Oc3cccc4c3C(=O)NCC4)c(Cl)c2)CC(C)(C)N1` [Compound I-525], the concentration for half-maximal inhibition (IC50) fell in the range of 5 to 20 µM. Then `CC1(C)CC(NC(=O)c2ccc(Oc3cccc(-c4ccc(C#N)nc4)c3C#N)c(Cl)c2)CC(C)(C)N1` [Compound I-526], with under 5 µM; and `CC1(C)CC(NC(=O)c2ccc(Oc3cccc(-c4ccc(C(N)=O)nc4)c3C#N)c(Cl)c2)CC(C)(C)N1` [Compound I-527], with under 5 µM; and `CC1(C)CC(NC(=O)c2ccc(Oc3cccc(-c4cncc(F)c4)c3C#N)c(Cl)c2)CC(C)(C)N1` [Compound I-528], with under 5 µM. Then `CC1(C)CC(NC(=O)c2ccc(Oc3cccc(C4=CCOCC4)c3C#N)c(Cl)c2)CC(C)(C)N1` [Compound I-529], with under 5 µM; and `CC1(C)CC(NC(=O)c2ccc(Oc3cccc(C4CCOC4)c3C#N)c(Cl)c2)CC(C)(C)N1` (stereo not shown) [Compound I-530], with under 5 µM.

For the molecule `CC1(C)CC(NC(=O)c2ccc(Oc3cccc(C4CCOCC4)c3C#N)c(Cl)c2)CC(C)(C)N1` [Compound I-531], the half-maximal inhibitory concentration (IC50) was under 5 µM.

On to `CC1(C)CC(NC(=O)c2ccc(Oc3cccc(C4CCNCC4)c3C#N)cc2)CC(C)(C)N1` [Compound I-534], for which the 50% inhibitory concentration (IC50) is under 5 µM. As for `CC1(C)CC(NC(=O)c2ccc(Oc3cccc(C4CCNCC4)c3C#N)c(Cl)c2)CC(C)(C)N1` [Compound I-535], the figure is under 5 µM. Then `CC(=O)N1CCC(c2cccc(Oc3ccc(C(=O)NC4CC(C)(C)NC(C)(C)C4)cc3Cl)c2C#N)CC1` [Compound I-537], with under 5 µM; and `CC1(C)CC(NC(=O)c2ccc(Oc3cccc(-c4cnc(N)nc4)c3C#N)c(Cl)c2)CC(C)(C)N1` [Compound I-538], with under 5 µM. For the molecule `CC1(C)CC(NC(=O)c2ccc(Oc3cccc(-c4ccc(N5CCNCC5)nc4)c3C#N)c(Cl)c2)CC(C)(C)N1` [Compound I-549], the IC50 is under 5 µM. Then `CN1CCN(c2ccc(-c3cccc(Oc4ccc(C(=O)NC5CC(C)(C)NC(C)(C)C5)cc4Cl)c3C#N)cn2)CC1` [Compound I-550], with under 5 µM; and `CNC(=O)CCc1cccc(Oc2ccc(C(=O)NC3CC(C)(C)NC(C)(C)C3)cc2Cl)c1C#N` [Compound I-551], with under 5 µM; and `CN(C)C(=O)CCc1cccc(Oc2ccc(C(=O)NC3CC(C)(C)NC(C)(C)C3)cc2Cl)c1C#N` [Compound I-552], with under 5 µM. Then `CC1(C)CC(NC(=O)c2ccc(Oc3cccc(CCC(=O)N4CCCC4)c3C#N)c(Cl)c2)CC(C)(C)N1` [Compound I-553], with under 5 µM.

Consider `COCCNC(=O)CCc1cccc(Oc2ccc(C(=O)NC3CC(C)(C)NC(C)(C)C3)cc2Cl)c1C#N` [Compound I-554], for which the IC50 was under 5 µM. On to `CN1CCN(C(=O)CCc2cccc(Oc3ccc(C(=O)NC4CC(C)(C)NC(C)(C)C4)cc3Cl)c2C#N)CC1` [Compound I-555], for which the half-inhibitory concentration (IC50) is under 5 µM. As for `CN(C)c1ccc(-c2cccc(Oc3ccc(C(=O)NC4CC(C)(C)NC(C)(C)C4)cc3Cl)c2C#N)cn1` [Compound I-557], the figure is under 5 µM.
